In patent US10173983B2, “Fungicidal pyridylamidines” (Syngenta Participations AG, priority 2014, dated 2019):

Legend:
Assay type in all cases: in vivo
[1] = tested on: Blumeria graminis f. Sp. tritici (Erysiphe graminis f. sp. tritici); assay: Blumeria graminis f. sp. tritici / wheat / leaf disc preventative (powdery mildew on wheat); details: foliar, wheat leaf segments cv. Kanzler, inoculated 1 day after application, assessed 6-8 days after application, compared to untreated, read-out: disease control
Description: Blumeria graminis f. Sp. tritici (Erysiphe graminis f. sp. tritici)/Wheat/Leaf Disc Preventative (Powdery Mildew on Wheat) Wheat leaf segments cv. Kanzler were placed on agar in a multiwell plate (24-well format) and sprayed with the formulated test compound diluted in water. The leaf disks were inoculated by shaking powdery mildew infected plants above the test plates 1 day after application. The inoculated leaf disks were incubated at 20° C. and 60% rh under a light regime of 24 h darkness followed by 12 h light/12 h darkness in a climate chamber and the activity of a compound was assessed as percent disease control compared to untreated when an appropriate level of disease damage appears on untreated check leaf segments (6-8 days after application). The following compounds gave at 200 ppm give at least 80% disease control in this test when compared to untreated control leaf disks under the same conditions, which show extensive disease development: […]

Phakopsora pachyrhizi = Phakopsora pachyrhizi on soybean, preventive treatment; details: 264 h, 1 day preventive, triazole tolerant soybean rust strain, evaluated 11 days after application, compared to untreated, read-out: disease control
Description: Phakopsora pachyrhizi on Soybean, Preventive Treatment
The compound activity was tested under 1 day preventive conditions. Soybean plants with a fully enfolded first trifoliate leaf were sprayed with a track sprayer and 50 l/ha spray volume with the test compounds, either solo or in tankmix as shown in the table below. 1 day after application leaf discs were cut from the first trifoliate leaf and placed in multiwell plates on water-agar. 5 leaf discs per treatment where infested with spores of a triazole tolerant soybean rust strain. The multiwell plates where sealed and placed in an incubator 48 h in darkness and 12 h light/dark cycle afterwards. Rust infestation on leaf discs was evaluated visually 11 days after application and average activity calculated in relation to disease severity on untreated check leaf discs.
The following compounds gave at 200 ppm gave at least 80% disease control in this test when compared to untreated control leaf disks under the same conditions, which show extensive disease development: […]

[2] = tested on: Puccinia recondita f. sp. tritici; assay: Puccinia recondita f. sp. tritici / wheat / leaf disc curative (brown rust); details: foliar, wheat leaf segments cv. Kanzler, compound applied 1 day after inoculation, assessed 6-8 days after application, compared to untreated, read-out: disease control
Description: Puccinia recondita f. sp. tritici/Wheat/Leaf Disc Curative (Brown Rust) Wheat leaf segments cv. Kanzler are placed on agar in multiwell plates (24-well format). The leaf segments are inoculated with a spore suspension of the fungus. Plates were stored in darkness at 19° C. and 75% rh. The formulated test compound diluted in water was applied 1 day after inoculation. The leaf segments were incubated at 19° C. and 75% rh under a light regime of 12 h light/12 h darkness in a climate cabinet and the activity of a compound was assessed as percent disease control compared to untreated when an appropriate level of disease damage appears in untreated check leaf segments (6-8 days after application). The following compounds gave at 200 ppm gave at least 80% disease control in this test when compared to untreated control leaf disks under the same conditions, which show extensive disease development: […]

[3] = tested on: Puccinia recondita f. sp. tritici; assay: Puccinia recondita f. sp. tritici / wheat / leaf disc preventative (brown rust); details: foliar, 168 h, wheat leaf segments cv. Kanzler, inoculated 1 day after application, assessed 7-9 days after application, compared to untreated, read-out: disease control
Description: Puccinia recondita f. sp. tritici/Wheat/Leaf Disc Preventative (Brown Rust) Wheat leaf segments cv. Kanzler were placed on agar in multiwell plates (24-well format) and sprayed with the formulated test compound diluted in water. The leaf disks were inoculated with a spore suspension of the fungus 1 day after application. The inoculated leaf segments were incubated at 19° C. and 75% rh under a light regime of 12 h light/12 h darkness in a climate cabinet and the activity of a compound was assessed as percent disease control compared to untreated when an appropriate level of disease damage appears in untreated check leaf segments (7-9 days after application). The following compounds gave at 200 ppm gave at least 80% disease control in this test when compared to untreated control leaf disks under the same conditions, which show extensive disease development: […]

Measured: pest or weed control at 200 ppm

CCCOCC(C)Oc1nc(C)c(N=CN(C)C2CC2)cc1Br (stereo not drawn) [Q.029, N′-[5-bromo-2-methyl-6-(1-methyl-2-propoxy-ethoxy)-3-pyridyl]-N-cyclopropyl-N-methyl-formamidine]
≥ 80%: all assays above

CCN(C)C=Nc1cc(Cl)c(OC(C)COc2cccc(C(F)(F)F)c2)nc1C (stereo not drawn) [Q.023, N′-[5-chloro-2-methyl-6-[1-methyl-2-[3-(trifluoromethyl)phenoxy]ethoxy]-3-pyridyl]-N-ethyl-N-methyl-formamidine]
≥ 80%: all assays above

CCCOCC(C)Oc1nc(C)c(/N=C/N(C)CC)cc1Br (stereo in doubt) [Q.002, N′-[5-bromo-2-methyl-6-[(1S)-1-methyl-2-propoxy-ethoxy]-3-pyridyl]-N-ethyl-N-methyl-formamidine]
≥ 80%: all assays above

CCCOCC(C)Oc1nc(C)c(N=CN(C)CC)cc1C(F)F (stereo not drawn) [Q.009, N′-[5-(difluoromethyl)-2-methyl-6-(1-methyl-2-propoxy-ethoxy)-3-pyridyl]-N-ethyl-N-methyl-formamidine]
≥ 80%: all assays above

CCN(C)C=Nc1cc(C#N)c(OC(C)COc2cccc(C(F)(F)F)c2)nc1C (stereo not drawn) [Q.020, N′-[5-cyano-2-methyl-6-[1-methyl-2-[3-(trifluoromethyl)phenoxy]ethoxy]-3-pyridyl]-N-ethyl-N-methyl-formamidine]
≥ 80%: all assays above

CCCOCC(C)Oc1nc(C)c(N=CN(C)CC)cc1OC(F)F (stereo not drawn) [Q.010, N′-[5-(difluoromethoxy)-2-methyl-6-(1-methyl-2-propoxy-ethoxy)-3-pyridyl]-N-ethyl-N-methyl-formamidine]
≥ 80%: all assays above

CCN(C)C=Nc1cc(Br)c(OC(C)COc2cccc(C(F)(F)F)c2)nc1C (stereo not drawn) [Q.027, N′-[5-bromo-2-methyl-6-[1-methyl-2-[3-(trifluoromethyl)phenoxy]ethoxy]-3-pyridyl]-N-ethyl-N-methyl-formamidine]
≥ 80%: [1] | Phakopsora pachyrhizi | [2]

CCCOCC(C)Oc1nc(C)c(N=CN2CCC2)cc1Br (stereo not drawn) [Q.030, 1-(azetidin-1-yl)-N-[5-bromo-2-methyl-6-(1-methyl-2-propoxy-ethoxy)-3-pyridyl]methanimine]
≥ 80%: all assays above

C=CCOCC(C)Oc1nc(C)c(N=CN(C)CC)cc1C#N (stereo not drawn) [Q.017, N′-[6-(2-allyloxy-1-methyl-ethoxy)-5-cyano-2-methyl-3-pyridyl]-N-ethyl-N-methyl-formamidine]
≥ 80%: all assays above

C=CCOCC(COC)Oc1nc(C)c(N=CN(C)CC)cc1Br (stereo not drawn) [Q.016, N′-[6-[1-(allyloxymethyl)-2-methoxy-ethoxy]-5-bromo-2-methyl-3-pyridyl]-N-ethyl-N-methyl-formamidine]
≥ 80%: all assays above

CCN(C)C=Nc1cc(Br)c(OC(C)COc2ccc(Cl)cc2)nc1C (stereo not drawn) [Q.026, N′-[5-bromo-6-[2-(4-chlorophenoxy)-1-methyl-ethoxy]-2-methyl-3-pyridyl]-N-ethyl-N-methyl-formamidine]
≥ 80%: all assays above

CCCOCC(C)Oc1nc(C)c(N=CN(C)C(C)C)cc1Br (stereo not drawn) [Q.018, N′-[5-bromo-2-methyl-6-(1-methyl-2-propoxy-ethoxy)-3-pyridyl]-N-isopropyl-N-methyl-formamidine]
≥ 80%: all assays above

CCN(C)C=Nc1cc(Br)c(OC(C)COc2ccccc2)nc1C (stereo not drawn) [Q.028, N′-[5-bromo-2-methyl-6-(1-methyl-2-phenoxy-ethoxy)-3-pyridyl]-N-ethyl-N-methyl-formamidine]
≥ 80%: all assays above

CCN(C)C=Nc1cc(C#N)c(OC(C)COc2ccc(Cl)cc2)nc1C (stereo not drawn) [Q.021, N′-[6-[2-(4-chlorophenoxy)-1-methyl-ethoxy]-5-cyano-2-methyl-3-pyridyl]-N-ethyl-N-methyl-formamidine]
≥ 80%: [1] | [2] | [3]

C=CCOCC(C)Oc1nc(C)c(N=CN(C)CC)cc1Cl (stereo not drawn) [Q.014, N′-[6-(2-allyloxy-1-methyl-ethoxy)-5-chloro-2-methyl-3-pyridyl]-N-ethyl-N-methyl-formamidine]
≥ 80%: all assays above

CCCOCC(C)Oc1nc(C)c(/N=C/N(C)CC)cc1Cl (stereo not drawn) [Q.015, N′-[5-chloro-2-methyl-6-(1-methyl-2-propoxy-ethoxy)-3-pyridyl]-N-ethyl-N-methyl-formamidine]
≥ 80%: all assays above

CCN(C)C=Nc1cc(C#N)c(OC(C)COc2ccccc2)nc1C (stereo not drawn) [Q.022, N′-[5-cyano-2-methyl-6-(1-methyl-2-phenoxy-ethoxy)-3-pyridyl]-N-ethyl-N-methyl-formamidine]
≥ 80%: [1] | [2] | [3]

CCCOCC(C)Oc1ccc(N=CN(C)CC)c(C)n1 (stereo not drawn) [Q.012, N-ethyl-N-methyl-N′-[2-methyl-6-(1-methyl-2-propoxy-ethoxy)-3-pyridyl]formamidine]
≥ 80%: Phakopsora pachyrhizi | [2]

CCCOCC(C)Oc1nc(C)c(/N=C/N(C)CC)cc1C(=O)OC (stereo not drawn) [Q.019, Methyl 5-[(E)-[ethyl(methyl)amino]methylene-amino]-6-methyl-2-(1-methyl-2-propoxy-ethoxy)pyridine-3-carboxylate]
≥ 80%: Phakopsora pachyrhizi | [2]
